# pIC50: −log10 of the molar value.
# Biological target: T1, Tyrosinase (Agaricus bisporus, UniProt O42713)
# T1 sequence (O42713 whole entry): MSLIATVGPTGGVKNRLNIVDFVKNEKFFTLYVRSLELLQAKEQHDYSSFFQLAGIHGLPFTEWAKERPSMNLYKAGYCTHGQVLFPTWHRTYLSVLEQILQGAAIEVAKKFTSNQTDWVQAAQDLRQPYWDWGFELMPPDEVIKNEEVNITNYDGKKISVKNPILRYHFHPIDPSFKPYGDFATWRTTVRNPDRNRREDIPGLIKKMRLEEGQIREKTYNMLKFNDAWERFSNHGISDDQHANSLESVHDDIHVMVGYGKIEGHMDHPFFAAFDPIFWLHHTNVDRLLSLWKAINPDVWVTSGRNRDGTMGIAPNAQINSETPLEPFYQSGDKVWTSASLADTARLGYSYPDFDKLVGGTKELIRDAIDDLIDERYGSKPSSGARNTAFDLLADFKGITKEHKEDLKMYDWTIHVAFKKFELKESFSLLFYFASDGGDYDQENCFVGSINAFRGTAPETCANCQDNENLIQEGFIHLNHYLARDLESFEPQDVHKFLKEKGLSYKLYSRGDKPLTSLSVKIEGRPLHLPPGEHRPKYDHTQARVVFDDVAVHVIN
# Description: Inhibition of mushroom tyrosinase
row,Compound,pIC50
1,Oc1ccc(CCc2ccc(O)cc2O[C@@H]2OC[C@@H](O)[C@H](O)[C@H]2O)c(O)c1,5.80
2,Oc1ccc(CCc2ccc(O[C@@H]3OC[C@@H](O)[C@H](O)[C@H]3O)cc2O)c(O)c1,6.37

# From ChEMBL document CHEMBL1144207, “Molecular design of potent tyrosinase inhibitors having the bibenzyl skeleton” (Bioorg Med Chem Lett, 2008)
